# Measured values from EP0908457B1, “3-(1,2-benzisothiazol- and isoxazol-5-Y1)-2,4(1H,3H)-pyrimidinedione or thione and 3-(1,2-benzisothiazol- and isoxazol-5-y1)-4(3H)-pyrimidinone or thione herbicidal agents” (BASF AKTIENGESELLSCHAFT, priority 1997, dated 1999).
# Legend:
# [1] = system: Cyperus serotinus, Rottb.; test: Preemergence weed control under flooded paddy conditions, CYPSE (Flatsedge); assay type: in vivo; conditions: preemergence, rated three to four weeks after treatment; as to herbicidal effect rating, CYPSE: meaning of each grade not given here
# [2] = system: Oryza sativa, (L.) Tebonnet; test: Rice tolerance to post-transplant applications under flooded paddy conditions (Example 187), ORYSAT (Rice, Tebonnet); conditions: rated three to four weeks after treatment; as to herbicidal effect rating ORYSAT: meaning of each grade not given here
# [3] = system: Cyperus iria; test: Preemergence weed control under flooded paddy conditions, CYPIR (Rice Flatsedge); assay type: in vivo; conditions: preemergence, flooded paddy, rated three to four weeks after treatment; as to herbicidal effect rating, CYPIR: meaning of each grade not given here
# [4] = system: Echinochloa oryzoides (Ard.) Fritsch.; test: Preemergence weed control under flooded paddy conditions, ECHORC (Watergrass (Calif.)); assay type: in vivo; conditions: preemergence, flooded paddy, rated three to four weeks after treatment; as to herbicidal effect rating, ECHORC: meaning of each grade not given here
# [5] = system: Sagittaria pygmaea, L.; test: Preemergence weed control under flooded paddy conditions, SAGPY (Arrowhead (Pygmaea)); assay type: in vivo; conditions: preemergence, flooded paddy, rated three to four weeks after treatment; as to herbicidal effect rating, SAGPY: meaning of each grade not given here
# [6] = system: Monochoria vaginalis, Presl.; test: Preemergence weed control under flooded paddy conditions, MOOVA (Monochoria); assay type: in vivo; conditions: preemergence, flooded paddy, rated three to four weeks after treatment; as to herbicidal effect rating, MOOVA: meaning of each grade not given here
structure (smiles),measurement,setting,value
"Cc1ccc(OCC(=O)OCC#Cc2ccccc2)c(-c2nsc3ccc(-n4c(=O)cc(C(F)(F)F)n(C)c4=O)cc23)c1 [Example 73, 3-Phenyl-2-propynyl {{2-{5-[3,6-dihydro-3-methyl-2,6-dioxo-4-(trifluoromethyl)-1(2H)-pyrimidinyl]-1,2-benzisothiazol-3-yl}-p-tolyl}oxy}acetate]","herbicidal effect rating, CYPSE",[1]; 0.0313 kg/ha,0.0
same,"herbicidal effect rating, CYPSE",[1]; 0.0625 kg/ha,0.0
same,"herbicidal effect rating, CYPSE",[1]; 0.1250 kg/ha,2.0
same,"herbicidal effect rating, CYPSE",[1]; 0.2500 kg/ha,9.0
same,"herbicidal effect rating, ORYSAT (rice tolerance)",[2]; 0.0313 kg/ha,2.5
same,"herbicidal effect rating, ORYSAT (rice tolerance)",[2]; 0.0625 kg/ha,3.0
same,"herbicidal effect rating, ORYSAT (rice tolerance)",[2]; 0.1250 kg/ha,4.0
same,"herbicidal effect rating, ORYSAT (rice tolerance)",[2]; 0.2500 kg/ha,6.0
same,"herbicidal effect rating, CYPIR",[3]; 0.0313 kg/ha,2.0
same,"herbicidal effect rating, CYPIR",[3]; 0.0625 kg/ha,6.0
same,"herbicidal effect rating, CYPIR",[3]; 0.1250 kg/ha,8.0
same,"herbicidal effect rating, CYPIR",[3]; 0.2500 kg/ha,8.0
same,"herbicidal effect rating, ECHORC",[4]; 0.0313 kg/ha,8.0
same,"herbicidal effect rating, ECHORC",[4]; 0.0625 kg/ha,6.5
same,"herbicidal effect rating, ECHORC",[4]; 0.1250 kg/ha,9.0
same,"herbicidal effect rating, ECHORC",[4]; 0.2500 kg/ha,9.0
same,"herbicidal effect rating, SAGPY",[5]; 0.0313 kg/ha,0.0
same,"herbicidal effect rating, SAGPY",[5]; 0.0625 kg/ha,0.0
same,"herbicidal effect rating, SAGPY",[5]; 0.1250 kg/ha,0.0
same,"herbicidal effect rating, SAGPY",[5]; 0.2500 kg/ha,2.0
same,"herbicidal effect rating, MOOVA",[6]; 0.0313 kg/ha,9.0
same,"herbicidal effect rating, MOOVA",[6]; 0.0625 kg/ha,9.0
same,"herbicidal effect rating, MOOVA",[6]; 0.1250 kg/ha,9.0
same,"herbicidal effect rating, MOOVA",[6]; 0.2500 kg/ha,9.0
"CC(C)C=C(C#N)c1nsc2ccc(-n3c(=O)cc(C(F)(F)F)n(C)c3=O)cc12 [Example 591, 1,2-Benzisothiazole-3-acetonitrile, 5-[3,6-dihydro-3-methyl-2,6-dioxo-4-(trifluoromethyl)-1(2H)-pyrimidinyl]-alpha-(2-methylpropylidene)-]","herbicidal effect rating, CYPSE",[1]; Rate 0.0320 kg/ha,0.0
same,"herbicidal effect rating, CYPSE",[1]; Rate 0.1250 kg/ha,0.0
same,herbicidal effect rating ORYSAT,[2]; Rate 0.0320 kg/ha,2.0
same,herbicidal effect rating ORYSAT,[2]; Rate 0.0620 kg/ha,4.0
same,herbicidal effect rating ORYSAT,[2]; Rate 0.1250 kg/ha,4.0
same,herbicidal effect rating ORYSAT,[2]; Rate 0.2500 kg/ha,5.0
same,"herbicidal effect rating, CYPIR",[3]; Rate 0.0320 kg/ha,3.0
same,"herbicidal effect rating, CYPIR",[3]; Rate 0.0620 kg/ha,4.0
same,"herbicidal effect rating, CYPIR",[3]; Rate 0.1250 kg/ha,7.0
same,"herbicidal effect rating, CYPIR",[3]; Rate 0.2500 kg/ha,7.0
same,"herbicidal effect rating, ECHORC",[4]; Rate 0.0320 kg/ha,3.0
same,"herbicidal effect rating, ECHORC",[4]; Rate 0.0620 kg/ha,3.0
same,"herbicidal effect rating, ECHORC",[4]; Rate 0.1250 kg/ha,7.0
same,"herbicidal effect rating, ECHORC",[4]; Rate 0.2500 kg/ha,9.0
same,"herbicidal effect rating, SAGPY",[5]; Rate 0.0320 kg/ha,0.0
same,"herbicidal effect rating, SAGPY",[5]; Rate 0.0620 kg/ha,3.0
same,"herbicidal effect rating, SAGPY",[5]; Rate 0.1250 kg/ha,7.0
same,"herbicidal effect rating, SAGPY",[5]; Rate 0.2500 kg/ha,7.0
same,"herbicidal effect rating, MOOVA",[6]; Rate 0.0320 kg/ha,7.0
same,"herbicidal effect rating, MOOVA",[6]; Rate 0.0620 kg/ha,9.0
same,"herbicidal effect rating, MOOVA",[6]; Rate 0.1250 kg/ha,9.0
same,"herbicidal effect rating, MOOVA",[6]; Rate 0.2500 kg/ha,9.0
"COC(=O)C(C)Oc1ccc(C)cc1-c1nsc2ccc(-n3c(=S)cc(C(F)(F)F)n(C)c3=O)cc12 (centres unmarked) [Example 33, Methyl 2-{{2-{5-[3,6-dihydro-3-methyl-2-oxo-6-thioxo-4-(trifluoromethyl)-1(2H)-pyrimidinyl]-1,2-benzisothiazol-3-yl}-p-tolyl}oxy}propionate]","herbicidal effect rating, CYPSE",[1]; 0.0313 kg/ha,0.0
same,"herbicidal effect rating, CYPSE",[1]; 0.0625 kg/ha,0.0
same,"herbicidal effect rating, CYPSE",[1]; 0.1250 kg/ha,0.0
same,"herbicidal effect rating, CYPSE",[1]; 0.2500 kg/ha,0.0
same,"herbicidal effect rating, ORYSAT (rice tolerance)",[2]; 0.0313 kg/ha,2.0
same,"herbicidal effect rating, ORYSAT (rice tolerance)",[2]; 0.0625 kg/ha,3.0
same,"herbicidal effect rating, ORYSAT (rice tolerance)",[2]; 0.1250 kg/ha,3.0
same,"herbicidal effect rating, ORYSAT (rice tolerance)",[2]; 0.2500 kg/ha,3.5
same,"herbicidal effect rating, CYPIR",[3]; 0.0313 kg/ha,0.0
same,"herbicidal effect rating, CYPIR",[3]; 0.0625 kg/ha,0.0
same,"herbicidal effect rating, CYPIR",[3]; 0.1250 kg/ha,2.0
same,"herbicidal effect rating, CYPIR",[3]; 0.2500 kg/ha,4.0
same,"herbicidal effect rating, ECHORC",[4]; 0.0313 kg/ha,7.5
same,"herbicidal effect rating, ECHORC",[4]; 0.0625 kg/ha,8.5
same,"herbicidal effect rating, ECHORC",[4]; 0.1250 kg/ha,9.0
same,"herbicidal effect rating, ECHORC",[4]; 0.2500 kg/ha,9.0
same,"herbicidal effect rating, SAGPY",[5]; 0.0313 kg/ha,0.0
same,"herbicidal effect rating, SAGPY",[5]; 0.0625 kg/ha,0.0
same,"herbicidal effect rating, SAGPY",[5]; 0.1250 kg/ha,0.0
same,"herbicidal effect rating, SAGPY",[5]; 0.2500 kg/ha,0.0
same,"herbicidal effect rating, MOOVA",[6]; 0.0313 kg/ha,9.0
same,"herbicidal effect rating, MOOVA",[6]; 0.0625 kg/ha,9.0
same,"herbicidal effect rating, MOOVA",[6]; 0.1250 kg/ha,9.0
same,"herbicidal effect rating, MOOVA",[6]; 0.2500 kg/ha,9.0
"CCCCCCCOC(=O)c1nsc2ccc(-n3c(=O)cc(C(F)(F)F)n(C)c3=O)cc12 [Example 388, 1,2-Benzisothiazole-3-carboxylic acid, 5-[3,6-dihydro-3-methyl-2,6-dioxo-4-(trifluoromethyl)-1(2H)-pyrimidinyl]-, heptyl ester]","herbicidal effect rating, CYPSE",[1]; Rate 0.0320 kg/ha,6.0
same,"herbicidal effect rating, CYPSE",[1]; Rate 0.2500 kg/ha,6.0
same,herbicidal effect rating ORYSAT,[2]; Rate 0.0320 kg/ha,3.0
same,herbicidal effect rating ORYSAT,[2]; Rate 0.0620 kg/ha,4.0
same,herbicidal effect rating ORYSAT,[2]; Rate 0.1250 kg/ha,4.0
same,herbicidal effect rating ORYSAT,[2]; Rate 0.2500 kg/ha,6.0
same,"herbicidal effect rating, CYPIR",[3]; Rate 0.0320 kg/ha,4.0
same,"herbicidal effect rating, CYPIR",[3]; Rate 0.0620 kg/ha,7.0
same,"herbicidal effect rating, CYPIR",[3]; Rate 0.1250 kg/ha,7.0
same,"herbicidal effect rating, CYPIR",[3]; Rate 0.2500 kg/ha,9.0
same,"herbicidal effect rating, ECHORC",[4]; Rate 0.0320 kg/ha,0.0
same,"herbicidal effect rating, ECHORC",[4]; Rate 0.0620 kg/ha,2.0
same,"herbicidal effect rating, ECHORC",[4]; Rate 0.1250 kg/ha,5.0
same,"herbicidal effect rating, ECHORC",[4]; Rate 0.2500 kg/ha,6.0
same,"herbicidal effect rating, SAGPY",[5]; Rate 0.0320 kg/ha,3.0
same,"herbicidal effect rating, SAGPY",[5]; Rate 0.0620 kg/ha,4.0
same,"herbicidal effect rating, SAGPY",[5]; Rate 0.1250 kg/ha,4.0
same,"herbicidal effect rating, SAGPY",[5]; Rate 0.2500 kg/ha,7.0
same,"herbicidal effect rating, MOOVA",[6]; Rate 0.0320 kg/ha,9.0
same,"herbicidal effect rating, MOOVA",[6]; Rate 0.0620 kg/ha,9.0
same,"herbicidal effect rating, MOOVA",[6]; Rate 0.1250 kg/ha,9.0
same,"herbicidal effect rating, MOOVA",[6]; Rate 0.2500 kg/ha,9.0
"C=C(C(=O)OC)C(C)OCc1nsc2ccc(-n3c(=O)cc(C(F)(F)F)n(C)c3=O)cc12 (centres unmarked) [Example 212, Methyl 3-{{5-[3,6-dihydro-3-methyl-2,6-dioxo-4-(trifluoromethyl)-1(2H)-pyrimidinyl]-1,2-benzisothiazol-3-yl}methoxy}-2-methylenebutyrate]",CYPSE herbicidal effect rating,[1]; Rate 0.0313 kg/ha,0.0
same,CYPSE herbicidal effect rating,[1]; Rate 0.0625 kg/ha,0.0
same,CYPSE herbicidal effect rating,[1]; Rate 0.1250 kg/ha,0.0
same,CYPSE herbicidal effect rating,[1]; Rate 0.2500 kg/ha,0.0
same,ORYSAT herbicidal effect rating,[2]; Rate 0.0313 kg/ha,3.0
same,ORYSAT herbicidal effect rating,[2]; Rate 0.0625 kg/ha,4.0
same,ORYSAT herbicidal effect rating,[2]; Rate 0.1250 kg/ha,6.0
same,ORYSAT herbicidal effect rating,[2]; Rate 0.2500 kg/ha,7.0
same,CYPIR herbicidal effect rating,[3]; Rate 0.0313 kg/ha,0.0
same,CYPIR herbicidal effect rating,[3]; Rate 0.0625 kg/ha,0.0
same,CYPIR herbicidal effect rating,[3]; Rate 0.1250 kg/ha,0.0
same,CYPIR herbicidal effect rating,[3]; Rate 0.2500 kg/ha,2.0
same,ECHORC herbicidal effect rating,[4]; Rate 0.0313 kg/ha,0.0
same,ECHORC herbicidal effect rating,[4]; Rate 0.0625 kg/ha,0.0
same,ECHORC herbicidal effect rating,[4]; Rate 0.1250 kg/ha,2.0
same,ECHORC herbicidal effect rating,[4]; Rate 0.2500 kg/ha,4.0
same,SAGPY herbicidal effect rating,[5]; Rate 0.0313 kg/ha,0.0
same,SAGPY herbicidal effect rating,[5]; Rate 0.0625 kg/ha,0.0
same,SAGPY herbicidal effect rating,[5]; Rate 0.1250 kg/ha,0.0
same,SAGPY herbicidal effect rating,[5]; Rate 0.2500 kg/ha,0.0
same,MOOVA herbicidal effect rating,[6]; Rate 0.0313 kg/ha,4.0
same,MOOVA herbicidal effect rating,[6]; Rate 0.0625 kg/ha,8.0
same,MOOVA herbicidal effect rating,[6]; Rate 0.1250 kg/ha,9.0
same,MOOVA herbicidal effect rating,[6]; Rate 0.2500 kg/ha,9.0
"CN(C)S(=O)(=O)NC(=O)c1nsc2ccc(-n3c(=O)cc(C(F)(F)F)n(C)c3=O)cc12 [Example 507, 1,2-Benzisothiazole-3-carboxamide, 5-[3,6-dihydro-3-methyl-2,6-dioxo-4-(trifluoromethyl)-1(2H)-pyrimidinyl]-N-(dimethylsulfamoyl)-]",CYPSE herbicidal rating,[1]; 0.0320 kg/ha,0.0
same,ORYSAT herbicidal rating (rice tolerance),[2]; 0.0320 kg/ha,3.0
same,ORYSAT herbicidal rating (rice tolerance),[2]; 0.0620 kg/ha,5.0
same,ORYSAT herbicidal rating (rice tolerance),[2]; 0.1250 kg/ha,7.0
same,ORYSAT herbicidal rating (rice tolerance),[2]; 0.2500 kg/ha,5.0
same,CYPIR herbicidal rating,[3]; 0.0320 kg/ha,5.0
same,CYPIR herbicidal rating,[3]; 0.0620 kg/ha,6.0
same,CYPIR herbicidal rating,[3]; 0.1250 kg/ha,9.0
same,CYPIR herbicidal rating,[3]; 0.2500 kg/ha,9.0
same,ECHORC herbicidal rating,[4]; 0.0320 kg/ha,2.0
same,ECHORC herbicidal rating,[4]; 0.0620 kg/ha,2.0
same,ECHORC herbicidal rating,[4]; 0.1250 kg/ha,4.0
same,ECHORC herbicidal rating,[4]; 0.2500 kg/ha,7.0
same,SAGPY herbicidal rating,[5]; 0.0320 kg/ha,7.0
same,SAGPY herbicidal rating,[5]; 0.0620 kg/ha,9.0
same,SAGPY herbicidal rating,[5]; 0.1250 kg/ha,9.0
same,SAGPY herbicidal rating,[5]; 0.2500 kg/ha,9.0
same,MOOVA herbicidal rating,[6]; 0.0320 kg/ha,9.0
same,MOOVA herbicidal rating,[6]; 0.0620 kg/ha,9.0
same,MOOVA herbicidal rating,[6]; 0.1250 kg/ha,9.0
same,MOOVA herbicidal rating,[6]; 0.2500 kg/ha,9.0
